Test results reported in patent US7875604B2, “Compounds that inhibit HIV particle formation” (University of Virginia Patent Foundation, priority 2004, dated 2011).
Read-outs that look alike come from different tables or passages of the source.

Key:
[1] = tested on: HIV-1 NL4-3; experiment: Anti-HIV efficacy in fresh human PBMCs, reverse transcriptase readout, HIV-1 NL4-3; assay type: cell-based; conditions: for TI (TC50/IC50): HIV-1 NL4-3, PBMCs; for IC50: HIV-1 NL4-3, fresh human PBMCs, seven days, RT activity
Description: Compounds were evaluated for their ability to inhibit HIV replication in fresh human PBMCs. The assay was performed as follows.
Fresh human PBMCs, seronegative for HIV and HBV, were isolated from screened donors (Interstate Blood Bank, Inc. Memphis, Tenn.). Cells were pelleted/washed 2-3 times by low speed centrifugation and re-suspension in PBS to remove contaminating platelets. The Leukophoresed blood was then diluted 1:1 with Dulbecco's Phosphate Buffered Saline (DPBS) and layered over 14 mL of Lymphocyte Separation Medium (LSM; Cellgro® by Mediatech, Inc.; density 1.078+/−0.002 g/ml; Cat.#85-072-CL) in a 50 mL centrifuge tube and then centrifuged for 30 minutes at 600×g. Banded PBMCs were gently aspirated from the resulting interface and subsequently washed 2× with PBS by low speed centrifugation. After the final wash, cells were enumerated by trypan blue exclusion and re-suspended at 1×10^7 cells/mL in RPMI 1640 supplemented with 15% Fetal Bovine Serum (FBS), and 2 mM L-glutamine, 4 μg/mL Phytohemagglutinin (PHA-P, Sigma). The cells were allowed to incubate for 48-72 hours at 37° C. After incubation, PBMCs were centrifuged and resuspended in RPMI 1640 with 15% FBS, 2 mM L-glutamine, 100 U/mL penicillin, 100 μg/mL streptomycin, 10 μg/mL gentamycin, and 20 U/mL recombinant human IL-2 (R&D Systems, Inc). IL-2 is included in the culture medium to maintain the cell division initiated by the PHA mitogenic stimulation. PBMCs were maintained in this medium at a concentration of 1-2×10^6 cells/mL with biweekly medium changes until used in the assay protocol. Cells were kept in culture for a maximum of two weeks before being deemed too old for use in assays and discarded. Monocytes were depleted from the culture as the result of adherence to the tissue culture flask.
(§1) For the standard PBMC assay, PHA-P stimulated cells from at least two normal donors were pooled (mixed together), diluted in fresh medium to a final concentration of 1×10^6 cells/mL, and plated in the interior wells of a 96 well round bottom microplate at 50 μL/well (5×10^4 cells/well) in a standard format developed by the Infectious Disease Research department of Southern Research Institute. Pooling (mixing) of mononuclear cells from more than one donor is used to minimize the variability observed between individual donors, which results from quantitative and qualitative differences in HIV infection and overall response to the PHA and IL-2 of primary lymphocyte populations. Each plate contains virus/cell control wells (cells plus virus), experimental wells (drug plus cells plus virus) and compound control wells (drug plus media without cells, necessary for MTS monitoring of cytotoxicity). Since HIV-1 is not cytopathic to PBMCs, this allows the use of the same assay plate for both antiviral activity and cytotoxicity measurements. Test drug dilutions were prepared at a 2× concentration in microtiter tubes and 100 μL of each concentration was placed in appropriate wells using the standard format. 50 μL of a predetermined dilution of virus stock was placed in each test well (final MOI≅0.1). The PBMC cultures were maintained for seven days following infection at 37° C., 5% CO2. After this period, cell-free supernatant samples were collected for analysis of reverse transcriptase activity as a measure of virus release. Following removal of supernatant samples, compound cytotoxicity was measured by addition of MTS to the plates for determination of cell viability. Wells were also examined microscopically and any abnormalities were noted.
A microtiter plate-based reverse transcriptase (RT) reaction was utilized (Buckheit et al., AIDS Research and Human Retroviruses 7:295-302, 1991). Tritiated thymidine triphosphate (3H-TTP, 80 Ci/mmol, NEN) was received in 1:1 dH2O:Ethanol at 1 mCi/mL. […]

[2] = MTS staining for PBMC viability to measure cytotoxicity; assay type: cell-based, human; conditions: human
Description: as §1
At assay termination, assay plates were stained with the soluble tetrazolium-based dye MTS (CellTiter 96 Reagent, Promega) to determine cell viability and quantify compound toxicity. The mitochondrial enzymes of metabolically active cells metabolize MTS to yield a soluble formazan product. This allows the rapid quantitative analysis of cell viability and compound cytotoxicity. […] At termination of the assay, 20 μL of MTS reagent was added per well. The microtiter plates were then incubated 4-6 hrs at 37° C. The incubation intervals were chosen based on empirically determined times for optimal dye reduction. Adhesive plate sealers were used in place of the lids, the sealed plate was inverted several times to mix the soluble formazan product and the plate was read spectrophotometrically at 490/650 nm with a Molecular Devices Vmax or SpectraMaxPlus plate reader.
(§2) Compounds were tested in the PBMC assay using the maximum high-test concentration possible based on the supplied stocks which are listed in table 3. Compounds were prepared at a 2× high-test concentration by combining drug stock with tissue culture media at a ratio of 5 μL of drug to 995 μL of media. This 2× high-test sample was subsequently serially diluted in tissue culture media using 1/2 log dilutions. This series of 2× concentrated drug was subsequently diluted 1:1 by combining with an equal volume of cells in media in the 96-well plates used for the assay.

[3] = HIV-1 Rev assay toxicity/non-specificity readout (Firefly Luciferase); assay type: cell-based; conditions: human
Description: The eight compounds listed in Table 1 were also tested in an assay that measured HIV-1 Rev function. The HIV-1 Rev assay is based upon the use of a reporter for detecting whether drug candidates are capable of inhibiting the function of the viral Rev protein. The reporter used for these assays is the Renilla Luciferase protein, which is an enzyme that produces detectable light when mixed with certain chemicals. For this assay, a cell line has been developed in which the production of the reporter by the cells requires the function of HIV-1 Rev. Therefore, if a drug candidate inhibits the function of Rev, it decreases the amount of the reporter produced by the cells. By using Renilla Luciferase as the reporter, the inhibition of Rev is easily detected as a decrease in the amount of light produced by the cells when mixed with the appropriate chemicals. Furthermore, the cell line for this assay has been engineered to use a second similar reporter (Firefly Luciferase) that detects whether drug candidates are toxic.
as §2, with “Rev” for “PBMC”, “as shown” for “which are listed”, “Table” for “table”, “assay. Representative data for two of the compounds is also depicted in FIG. 5.” for “assay.”
Leptomycin B is a control compound known to inhibit Rev function.

[4] = Human immunodeficiency virus 1, NL43, PBMC, 168 h
[5] = PBMC plates with HIV-1 BR/93/021, MTS, read-out: TC50
[6] = PBMC plates with HIV-1 NL4-3, MTS, read-out: TC50

Molecule | TI (TC50/IC50) [1] | IC50 [1] [µM] | IC50 [1, 4] [µM] | CC50 at 7 days [2, 5] [µM] | CC50 at 7 days [2, 6] [µM] | CC50 at 24 hours [3] [µM] | CC50 at 7 days ([2]; TC50) [µM] | CC50 at 24 hours ([3]; 50% inhibition of Firefly Luciferase (toxicity/non-specificity), 24 hours, read-out: TC50) [µM]
2-chloro-N-(4-methylphenyl)-4-(trifluoromethyl)-1,3-thazole-5-carboxamide [Compound 91161] | 5.92 | 2.28 |  |  |  |  |  | 
CCc1c(C(=O)Nc2ccccc2)c(C)nc2sc(C(N)=O)c(N)c12 [Compound 75168, 3-amino-4-ethyl-6-methyl-N˜5˜-phenylthieno[2,3-b]pyridine-2,5-dicarboxamide] | >1.59 |  | 16.9 | > 26.8 | > 26.8 | 7.91 |  | 
COc1ccc2cc3c(N)n[nH]c3nc2c1 [Compound 89246, 7-methoxy-1H-pyrazolo[3,4-b]quinolin-3-ylamine] | 14.90 |  | 1.47 | 32.7 | 21.9 | 8.41 |  | 
CCc1c(C)nc2sc(C(N)=O)c(N)c2c1C [Compound 103833, 3-amino-5-ethyl-4,6-dimethylthieno[2,3-b]pyridine-2-carboxamide] | >16.94 |  | 2.22 |  |  | > 37.6 | > 37.6 | 
COc1ccc2nc(C(F)(F)F)c(C#N)c(N)c2c1 [Compound 104366, 4-amino-6-methoxy-2-(trifluoromethyl)-3-quinolinecarbonitrile] | 23.91 |  | 0.92 | 24.9 | 22 |  |  | 17.2
CS(=O)(=O)c1ncc(-c2ccc(Br)cc2)cn1 [Compound 107129, -(4-bromophenyl)-2-(methylsulfonyl)pyrimidine] | 1.95 |  | 2.12 | 6.26 | 4.13 | 30.9 |  | 
COc1cccc(NC(=O)c2cc(Cl)nnc2Cl)c1 [Compound 107740, 3,6-dichloro-N-(3-methoxyphenyl)-4-pyridazinecarboxamide] | 8.94 |  | 1.61 | 18.8 | 14.4 | 18.5 |  | 
Fc1ccc(Nc2ncnc3ccccc23)cc1Cl [Compound 109020, N-(3-chloro-4-fluorophenyl)-N-(4-quinazolinyl)amine] | >1.55 |  | 26.4 |  |  | > 40.8 | > 40.8 | 
